Results reported in patent US20260078348A1, “MULTIPLE MYELOMA MICROORGANOSPHERES” (Xilis, Inc., priority 2022, published 2026).

Tests used:
MM MOS [1] = test: Caspase 3/7 green dye apoptosis monitoring of drug-treated MM MOS (INCUCYTE imaging); type: cell-based, human; conditions: for MM MOS death (Caspase 3/7 signal): day 11 MM MOS, 5 μM lenalidomide or 2 nM bortezomib for 92 hours, vs negative control
Procedure: Studies were conducted to determine the effects of various MM drugs on the MM MOS. For example, day 11 MM MOS were treated with 5 μM lenalidomide or 2 nM bortezomib for 92 hours, with no medium change during the drug treatment. Caspase 3/7 green dye was included in the medium to monitor apoptosis, and fluorescence was measured.

MM MOS [2] = test: Live/dead dye (calcein AM / ethidium homodimer) imaging of drug-treated MM MOS; type: cell-based, human; conditions: for MM MOS response to treatment: 10 μM for 4 days, live/dead dye images, n=3, p<0.05 by t-test; for live/dead ratio: 10 μM, 4 days of treatment beginning on day 9 of MOS generation, compared to negative control
Procedure: Further studies were conducted using 10 μM carfilzomib or 10 μM selinexor treatment beginning on day 9 of MOS generation from MM patient bone marrow biopsy samples. After 4 days of treatment, live/dead dyes (calcein AM-green and ethidium homodimer-red) were added to the wells for a 30-minute incubation.

| SMILES | MM MOS death (Caspase 3/7 signal) (MM MOS [1]) | MM MOS response to treatment (MM MOS [2]) | live/dead ratio (MM MOS [2]) | time at which MM MOS responded after onset of treatment (MM MOS [1]; 5 μM lenalidomide, INCUCYTE images taken every 2 hours) [h] |
| --- | --- | --- | --- | --- |
| CC(C)C[C@H](NC(=O)[C@H](Cc1ccccc1)NC(=O)c1cnccn1)B(O)O [bortezomib] | not |  |  |  |
| O=C(/C=C\n1cnc(-c2cc(C(F)(F)F)cc(C(F)(F)F)c2)n1)NNc1cnccn1 [selinexor] |  | responded | significantly reduced |  |
| Nc1cccc2c1CN(C1CCC(=O)NC1=O)C2=O (stereo not shown) [lenalidomide] | increased |  |  | 24 |
| CC(C)C[C@H](NC(=O)[C@H](CCc1ccccc1)NC(=O)CN1CCOCC1)C(=O)N[C@@H](Cc1ccccc1)C(=O)N[C@@H](CC(C)C)C(=O)[C@@]1(C)CO1 [carfilzomib] |  | responded | significantly reduced |  |
